We go through 28 compounds from the SangsterLogP compilation.

In turn, `COC(=O)c1cc(OC(=O)N2CCCC2)c(Cl)cc1Cl` displayed a logP of 3.95.

Regarding `COC(=O)c1cc(Oc2ccc(C(F)(F)F)cc2Cl)ccc1Cl`, the logP stood at 5.04.

In turn, `O=[N+]([O-])c1ccc(Oc2ccc(C(F)(F)F)cc2Cl)cc1Oc1ccoc1` yielded a logP of 4.33.

The compound `Nc1c([N+](=O)[O-])ccc(Oc2ccccc2)c1Cl` registered a logP of 4.04.

With `COC(=O)c1cc(Oc2ccc(C(F)(F)F)cc2Cl)ccc1[N+](=O)[O-]`, the logP amounted to 4.26.

`Cc1cccc(Oc2ccc([N+](=O)[O-])cc2)c1` showed a logP of 4.4.

For the compound `O=[N+]([O-])c1ccc(Oc2ccc(Cl)cc2Cl)cc1`, the logP is 4.64.

Regarding `C#CCOc1cc(OC(=O)N2CCC(F)(F)CC2)c(Cl)cc1Cl`, the logP turned out to be 3.57.

The compound `C=COC(=O)[C@@H](C)Oc1cc(Oc2ccc(C(F)(F)F)cc2Cl)ccc1[N+](=O)[O-]` gave a logP of 4.54.

`COC(=O)c1cc(S(=O)c2ccc(C(F)(F)F)cc2Cl)ccc1[N+](=O)[O-]` (stereo not drawn): the logP was 3.65.

Compound `O=C(Oc1ccccc1)N1CCCC1` gave a log partition coefficient (logP) of 2.73.

In turn, `COC(=O)c1cc(Oc2cc(C(F)(F)F)ccc2Cl)ccc1[N+](=O)[O-]` yielded a logP of 4.21.

`CCOC(=O)C(C)OC(=O)c1cc(Oc2ccc(C(F)(F)F)cc2Cl)ccc1[N+](=O)[O-]` (stereo not drawn) came in with a logP of 4.81.

On to `C#CCOc1cc(OC(=O)N(CC)CC)c(Cl)cc1Cl`, for which the logP came out at 3.95.

In turn, `O=C(Oc1ccccc1Cl)N1CCCC1` gave a logP of 3.13.

In the case of `C#CCOc1cc(OC(=O)N2CCCC2)c(Cl)cc1Cl`, the logP stood at 3.82.

`O=C(Oc1ccc(Cl)cc1)N1CCCC1` came in with a logP of 3.38.

As for `O=[N+]([O-])c1ccc(Oc2ccc(C(F)(F)F)cc2Cl)cc1`, the logP amounted to 4.54.

In the case of `O=C(Oc1cc(O)c(Cl)cc1Cl)N1CCCC1`, the lipophilicity (logP) was found to be 2.98.

Compound `O=C(Oc1ccc(Cl)cc1Cl)N1CCCC1` came in with a logP of 3.94.

`CC(C)OC(=O)c1cc(OC(=O)N2CCCC2)c(Cl)cc1Cl` came in with a logP of 4.67.

Regarding `COC(=O)c1cc(S(=O)(=O)c2ccc(C(F)(F)F)cc2Cl)ccc1[N+](=O)[O-]`, the logP worked out at 3.57.

`C#CCOc1cc(OC(=O)N2CCCCC2)c(Cl)cc1Cl` had a logP of 4.25.

Compound `C#CCOc1cc(OC(=O)N2CCC(F)(F)C2)c(Cl)cc1Cl` registered a logP of 3.42.

In turn, `C#CCOC1=Nc2ccc(OC(=O)N3CCCC3)cc2OC1` returned a logP of 2.93.

For the compound `COC(=O)CC(C)(N=O)c1cc(Oc2ccc(C(F)(F)F)cc2Cl)ccc1[N+](=O)[O-]` (stereo not drawn), the logP was determined as 4.54.

In the case of `CC(C)OC(=O)c1cc(OC(=O)N2CCCC2)c(F)cc1Cl`, the log partition coefficient (logP) worked out at 4.2.

As to `O=C(O)COC(=O)c1cc(Oc2ccc(C(F)(F)F)cc2Cl)ccc1[N+](=O)[O-]`, the logP is 4.27.

As a reminder, the logP is a log measure of how a compound divides between an organic and an aqueous phase.
